Experimental data published in US7943804B2, “Lutein extraction from ozone-treated plant sources” (Board of Supervisors of Louisiana State University and …, priority 2006, dated 2011).
Read-outs that look alike come from different tables or passages of the source.

Key:
[1] = test system: AFB1 mutagenicity, Salmonella strains; settings: cited from earlier work
[2] = test system: AFB1 mutagenicity in Salmonella typhimurium tester strain TA100; assay type: cell-based; settings: AFB1 500 ng/plate
[3] = test system: Salmonella typhimurium tester strain TA100; settings: for Number of Revertants (without use of AFB1): TA100
[4] = test system: Salmonella typhimurium tester strain TA100; assay type: cell-based

CC1=C[C@H](O)CC(C)(C)[C@H]1/C=C/C(C)=C/C=C/C(C)=C/C=C/C=C(C)/C=C/C=C(C)/C=C/C1=C(C)C[C@@H](O)CC1(C)C [Lutein, β, e-carotene-3,3′-diol]
mutagenic effect of aflatoxin relative to control [1]: 2%
inhibition of AFB1 mutagenicity, result in words ([1]; test based on Salmonella strains): inhibit the mutagenicity of AFB1
inhibition of AFB1 mutagenicity, result in words ([2]; TA100): inhibited AFB1 (500 ng/plate) mutagenicity in a dose-response manner
Number of Revertants ([2]; lutein standard 0.02 μg/plate): 876 ± 34
Percent Inhibition ([2]; lutein standard 0.02 μg/plate): 5.3%
Number of Revertants ([2]; lutein standard 0.2 μg/plate): 813 ± 45
Percent Inhibition ([2]; lutein standard 0.2 μg/plate): 12.1%
Number of Revertants ([2]; lutein standard 0.8 μg/plate): 741 ± 25
Percent Inhibition ([2]; lutein standard 0.8 μg/plate): 19.9%
Number of Revertants ([2]; lutein standard 2 μg/plate): 679 ± 39
Percent Inhibition ([2]; lutein standard 2 μg/plate): 26.6%
Number of Revertants ([2]; lutein standard 10 μg/plate): 568 ± 50
Percent Inhibition ([2]; lutein standard 10 μg/plate): 38.6%
mutagenic effect (increase of revertants over the natural rate) ([3]; TA100, result in words): neither purified lutein nor corn lutein extracts increase the number of revertants over the natural rate
Number of Revertants (without use of AFB1) ([3]; lutein standard 0.02 μg/plate): 247 ± 15
Number of Revertants (without use of AFB1) ([3]; lutein standard 0.2 μg/plate, listed as Lutein Standard): 258 ± 10
Number of Revertants (without use of AFB1) ([3]; lutein standard 0.2 μg/plate, listed as lutein standard): 254
Number of Revertants (without use of AFB1) ([3]; lutein standard 0.8 μg/plate, listed as Lutein Standard): 261 ± 13
Number of Revertants (without use of AFB1) ([3]; lutein standard 0.8 μg/plate, listed as lutein standard): 261
Number of Revertants (without use of AFB1) ([3]; lutein standard 2 μg/plate): 243 ± 8
Number of Revertants (without use of AFB1) ([3]; lutein standard 10 μg/plate, listed as Lutein Standard): 264 ± 12
Number of Revertants (without use of AFB1) ([3]; lutein standard 10 μg/plate, listed as lutein standard): 264

CC1=CCCC(C)(C)[C@H]1/C=C/C(C)=C/C=C/C(C)=C/C=C/C=C(C)/C=C/C=C(C)/C=C/C1=C(C)CCCC1(C)C [α-carotene]
mutagenic effect of aflatoxin relative to control [1]: 2%

aflatoxin B1 [AFB1]
mutagenic potency [4]: about 925 revertants/plate
